Measurements from patent publication US7279600B2, “Hydroxy-biphenyl-carbaldehyde oxime derivatives and their use as estrogenic agents” (Wyeth, priority 2003, dated 2007).
Where a name gives a salt, the structure may show the parent alone.

Key:
ERβ = ERβ (Homo sapiens, UniProt Q92731); assay: biochemical
ERα = ERα (Homo sapiens, UniProt P03372); assay: biochemical
ERα, sequence (P03372 whole entry): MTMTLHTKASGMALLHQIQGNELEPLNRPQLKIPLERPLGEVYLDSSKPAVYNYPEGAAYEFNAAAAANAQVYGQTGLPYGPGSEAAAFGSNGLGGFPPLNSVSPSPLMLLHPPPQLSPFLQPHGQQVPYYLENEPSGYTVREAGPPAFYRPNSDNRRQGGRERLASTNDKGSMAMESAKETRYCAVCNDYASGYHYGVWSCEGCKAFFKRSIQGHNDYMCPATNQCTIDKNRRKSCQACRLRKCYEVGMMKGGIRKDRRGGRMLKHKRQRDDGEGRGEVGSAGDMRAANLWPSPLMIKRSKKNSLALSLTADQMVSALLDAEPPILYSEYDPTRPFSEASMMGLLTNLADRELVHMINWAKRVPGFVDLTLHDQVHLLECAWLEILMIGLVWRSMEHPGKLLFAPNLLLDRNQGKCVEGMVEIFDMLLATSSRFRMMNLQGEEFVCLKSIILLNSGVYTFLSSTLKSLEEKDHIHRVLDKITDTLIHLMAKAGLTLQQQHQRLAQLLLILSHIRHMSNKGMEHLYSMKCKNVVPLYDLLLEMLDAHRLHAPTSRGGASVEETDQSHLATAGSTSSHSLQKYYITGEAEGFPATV

ERβ, sequence (Q92731 whole entry, species assumed): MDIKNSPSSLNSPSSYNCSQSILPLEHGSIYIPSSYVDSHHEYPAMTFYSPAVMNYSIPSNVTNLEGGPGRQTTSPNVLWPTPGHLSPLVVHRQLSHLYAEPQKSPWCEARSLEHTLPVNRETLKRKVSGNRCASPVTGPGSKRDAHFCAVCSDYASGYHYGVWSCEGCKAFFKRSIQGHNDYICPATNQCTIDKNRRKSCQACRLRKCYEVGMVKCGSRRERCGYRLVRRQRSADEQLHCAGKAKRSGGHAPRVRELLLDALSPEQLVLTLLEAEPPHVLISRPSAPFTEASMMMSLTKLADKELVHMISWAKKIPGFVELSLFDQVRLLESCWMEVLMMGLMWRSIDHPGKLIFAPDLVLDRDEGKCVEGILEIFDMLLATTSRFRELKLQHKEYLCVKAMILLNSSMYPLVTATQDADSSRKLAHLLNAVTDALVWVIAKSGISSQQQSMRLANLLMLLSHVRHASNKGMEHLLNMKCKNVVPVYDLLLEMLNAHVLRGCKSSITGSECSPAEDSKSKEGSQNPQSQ

| Structure (SMILES) | melting point | IC50 (ERβ) | IC50 (ERα) |
| --- | --- | --- | --- |
| Cc1cc(-c2ccc(O)cc2)ccc1/C=N/O [Example 29, 4′-Hydroxy-3-methyl[1,1′-biphenyl]-4-carbaldehyde oxime] | 195 to 197 °C | 163 nM | 3190 nM |
| O/N=C/c1ccc(-c2ccc(O)cc2)cc1 [Example 30, 4′-Hydroxy[1,1′-biphenyl]-4-carbaldehyde oxime] | 207 to 210 °C | 3840 nM | > 5000 nM |
| O/N=C/c1ccc(-c2ccc(O)cc2)cc1Cl [Example 31, 3-Chloro-4′-hydroxy[1,1′-biphenyl]-4-carbaldehyde oxime] | 187 to 189 °C | 85 nM | 1540 nM |
| O/N=C/c1ccc(-c2ccc(O)cc2)c(F)c1 [Example 32, 2-Fluoro-4′-hydroxy-1,1′-biphenyl-4-carbaldehyde oxime] | 178 to 180 °C | 421 nM | 3450 nM |
| O/N=C/c1ccc(-c2ccc(O)cc2)cc1F [Example 33, 3-Fluoro-4′-hydroxy-1,1′-biphenyl-4-carbaldehyde oxime] |  | 161 nM | 1720 nM |
| O/N=C/c1ccc(-c2ccc(O)cc2)c(Cl)c1 [Example 34, 2-Chloro-4′-hydroxy-1,1′-biphenyl-4-carbaldehyde oxime] | 178 to 179 °C | 98 nM | 398 nM |
| COc1cc(-c2ccc(O)cc2)ccc1/C=N/O [Example 35, 4′-Hydroxy-3-methoxy-1,1′-biphenyl-4-carbaldehyde oxime] | 228 to 230 °C | 1060 nM | 7990 nM |
| Cc1cc(/C=N/O)ccc1-c1ccc(O)cc1 [Example 36, 4′-Hydroxy-2-methyl-1,1′-biphenyl-4-carbaldehyde oxime] | 169 to 171 °C | 585 nM | 2820 nM |

Next, values leading:

| melting point | IC50 (ERβ) | IC50 (ERα) | Structure (SMILES) |
| --- | --- | --- | --- |
| 225 to 227 °C |  |  | O/N=C/c1ccc(-c2ccc(O)c(F)c2)c(Cl)c1Cl (as salt: salt) [Example 57, 2,3-Dichloro-3′-fluoro-4′-hydroxy-1,1′-biphenyl-4-carbaldehyde oxime] |
| 198 to 200 °C | 54 nM | 1910 nM | O/N=C/c1ccc(-c2ccc(O)c(F)c2)cc1Cl [Example 37, 3-Chloro-3′-fluoro-4′-hydroxy-1,1′-biphenyl-4-carbaldehyde oxime] |
| 216 to 219 °C | 268 nM | > 7000 nM | O/N=C/c1ccc(-c2cc(F)c(O)c(F)c2)cc1Cl [Example 38, 3-Chloro-3′, 5′-fluoro-4′-hydroxy-1,1′-biphenyl-4-carbaldehyde oxime] |
| 169 to 171 °C | 27 nM | 174 nM | Cc1cc(O)ccc1-c1ccc(/C=N/O)c(Cl)c1 [Example 39, 3-Chloro-4′-hydroxy-2′-methyl-1,1′-biphenyl-4-carbaldehyde oxime] |
| 183 to 186 °C | 8 nM | 64 nM | O/N=C/c1c(Cl)cc(-c2ccc(O)cc2)cc1Cl [Example 54, 3,5-Dichloro-4′-hydroxy-1,1′-biphenyl-4-carbaldehyde oxime] |
| 185 to 190 °C |  |  | O/N=C/c1c(Cl)cc(-c2ccc(O)c(F)c2)cc1Cl [Example 55, 3,5-Dichloro-3′-fluoro-4′-hydroxy-1,1′-biphenyl-4-carbaldehyde oxime] |
| 208 to 210 °C | 49 nM | 851 nM | O/N=C/c1ccc(-c2ccc(O)cc2)c(Cl)c1Cl [Example 56, 2,3-Dichloro-4′-hydroxy-1,1′-biphenyl-4-carbaldehyde oxime] |
|  | 81 nM | 1960 nM | O/N=C/c1ccc(-c2ccc(O)c(F)c2)c(Cl)c1Cl [Example 57, 2,3-Dichloro-3′-fluoro-4′-hydroxy-1,1′-biphenyl-4-carbaldehyde oxime] |
